Experiments:
3 T3-L1 preadipocytes [1] = test: Cell viability (MTT) in 3 T3-L1 preadipocytes; type: cell-based; conditions: 24 h, 1 to 100 μg/mL
Protocol: With slight modifications based on the method ([Cui et al., 2019]). MTT method was used to assess the proliferative effects of different concentrations of orlistat, SBTH and PIE on 3 T3-L1 preadipocytes. Cells were treated with different samples for 24 h. Finally, the absorbance at 490 nm was measured using a Microplate Reader (Synergy H1, BioTek, USA).

α-amylase [2] = test: α-amylase conformation: secondary structure content by circular dichroism; type: biochemical; conditions: 1-1000 μg/mL
Protocol: The effect of peptides on the secondary structure of α-amylase was analyzed by circular dichroism. α-Amylase was reacted with the following different concentrations of SBPH, SBTH, and SBNPH: 1, 10, 100, and 1000 μg/mL. The test parameters were as follows: 1 mm quartz cuvette; scanning wavelength range = 190– 250 nm; bandwidth = 2 nm; scanning speed = 100 nm/min; and response time = 1 s. α-Amylase without SBPH, SBTH, and SBNPH treatment was used as the blank control, and it was analyzed under the same conditions. The experimental results were obtained by subtracting the buffer background from the scanned data ([Zhang & Ma, 2013]).

[3] = ref Xu et al., 2020, 2019, 2022; cited from earlier work
Source text: Peptidomics facilitates the comprehensive characterization of peptides on a large scale. This analytical approach offers a time-efficient means of generating an extensive array of peptide fragments ([Martini, Solieri, & Tagliazucchi, 2021]). Herein, the peptide sequences were retrieved from an established database using MASCOT, and active peptide sequences with Ca-binding capacities were identified. The peptide sequences from SBTH were identified in Table S1 (Supplementary materials), along with information on their amino acid sequences, lengths, and molecular weights. A total of 6505 peptide ...

3 T3-L1 preadipocytes [4] = test: Cellular triglyceride content; type: cell-based; conditions: 1000 μg/mL, with Inducers I and II
Protocol: (§1) With minor modifications based on the method ([Lee et al., 2023]). 3 T3-L1 Preadipocytes were cultured at 37 °C and 5% CO2 until 80% fusion, passaged and differentiated. After induction with inducers for 8d, the cells were then cultured with DMEM containing 1% PS and 10% FBS for 4d.
Cellular triglyceride content (TG) was measured using a kit (JianCheng, Nanjing, China). Differentiated adipocytes were treated with different samples in 6-well plates according to the manufacturer's instructions. Cells were first washed with PBS, followed by the addition of ethanol. The cells were then transferred into centrifuge tubes using a cell scraper. Subsequently, the cells were broken down by ultrasound in an ice water bath. […] was measured using a specialized kit.

α-amylase [5] = test: α-amylase inhibition rate (DNS method, soluble starch); type: biochemical; conditions: 100 μg/mL; α-amylase 4 units/mL, PBS pH 6.9, 37 °C 10 min, 1% soluble starch 5 min, DNS 540 nm; mean, n = 3
Protocol: (§2) The activity of α-amylase was determined spectrophotometrically using soluble starch as the substrate and 3,5-dinitrosalicylic acid (DNS) as the chromogenic agent. α-amylase solution (4 units/mL, 0.25 mL) and 0.25 mL each of SBPH, SBTH, and SBNPH (each at 1 μg/mL, 10 μg/mL, 100 μg/mL, and 1000 μg/mL concentrations) were added to 0.5 mL of PBS (pH 6.9, 0.2 mol/L) to make test solutions. These solutions were then incubated at 37 °C for 10 min. Then, 0.5 mL of 1% soluble starch solution was added to each test solution to continue the reaction for 5 min. Thereafter, l mL of DNS reagent was added to each solution, and the mixtures were boiled for 10 min. After the dilution of five times, the absorbance value was measured at 540 nm ([Wu et al., 2019]). The inhibition of the activity of α-amylase by salmon bone hydrolysate was calculated as using the formula (1):(1) I%=[1−B−b/A−a×100% where I represents the inhibition rate of α-amylase by salmon bone hydrolysates. A represents the absorbance value of the blank tube, a represents the absorbance value of the blank control tube, B represents the absorbance value of the inhibition tube, and b represents the absorbance value of the background control tube.

[6] = Ca-binding capacity (colorimetric Ca kit); conditions: 5 mg sample, 1 mL 5 mM CaCl2, 2 mL PBS 20 mM pH 7, 37 °C 1 h; ranking in words, Fig. 1C
Protocol: The Ca-binding capacities of SBPH, SBTH, and SBNPH were determined according to the previous study ([Choi, Jung, Choi, Kim, & Ha, 2005]). 5 mg lyophilized powder of SBPH, SBTH, and SBNPH, was mixed with 1 mL of 5 mM CaCl2 and 2 mL of phosphate-buffered saline (PBS, 20 mM, pH = 7). The mixture was stirred at 37 °C pH = 7 for 1 h, followed by centrifugation at 5000 rpm for 10 min. The calcium content in the supernatant was determined using colorimetry with Ca assay kits (JianCheng, Nanjing, China).

α-amylase [7] = test: DLS analysis of α-amylase particle size / hydrodynamic radius; type: biochemical; conditions: α-amylase 4 units/mL, substance 1-1000 μg/mL, 24 h incubation
Protocol: The α-amylase solution (4 units/mL) and SBPH, SBTH, and SBNPH solutions (each at 1, 10, 100, and 1000 μg/mL concentrations) were prepared. Filtration was performed using a 0.45-μm filter. The α-amylase solution was incubated with different concentrations of SBPH, SBTH, and SBNPH solutions for 24 h. Each sample (1 mL) was analyzed using the DLS apparatus. The particle size variation of α-amylase in each solution was analyzed. The α-amylase alone solution was used as a positive control under the same conditions ([Xiong et al., 2016]).

[8] = Effect of PIE on body weight in mice; type: in vivo; conditions: 30 mg/kg by gavage, 12 weeks, female BALB/c mice
Protocol: The animal study was approved by the Animal Ethics Committee of Dalian Polytechnic University (protocol ID SYXK2017–0005) per the guidelines of the National Institutes of Health Laboratory Animals for Animal Care. 10-week-old female BALB/c mice (L20160258, Dalian Medical University, Liaoning, China) were acclimatized with normal chow for 2 d, and were randomly separated 2 groups (n = 8): the control group (saline) and the PIE group (at a dose of 30 mg PIE/kg body weight). Both groups were maintained on a basal diet throughout the study. Given that mice are nocturnal feeders, gavage was performed between 5:00–6:00 PM. Body weights were measured and recorded at 7-day intervals. The feed and water were provided ad libitum to mice. Changes in body weight were analyzed after 12 weeks of continuous gavage ([Pinzón-García et al., 2018]).

α-amylase [9] = test: α-amylase inhibition during in vitro simulated gastrointestinal digestion; type: biochemical; conditions: 0-240 min, DNS method
Protocol: as §2, with “The inhibition of the activity of α-amylase by salmon bone hydrolysate was calculated as using the formula (1):(1) I%=[1−B−b/A−a×100% where I represents the inhibition rate of α-amylase by salmon bone hydrolysates.” left out
A gastrointestinal digestion simulation test was performed according to a previously reported method ([Brodkorb et al., 2019]). Samples were assessed at 0, 10, 30, 60, 90, 120, 130, 150, 180, 210, and 240 min. The inhibition rates of SBPH, SBTH, and SBNPH for α-amylase were determined by the DNS method.

α-amylase [10] = test: Kinetics of α-amylase inhibition (Lineweaver-Burk); type: biochemical; conditions: 37 °C
Protocol: The kinetics of α-amylase inhibition was performed with minor modifications as previously reported ([Cardullo et al., 2020]). In the reaction system, 1 mL of soluble starch solution (10 mg/mL) and 1 mL of different concentrations of SBPH, SBTH, and SBNPH (concentrations of 1, 10, 100, and 1000 μg/mL, respectively) were added. a temperature bath was maintained at 37 °C for 30 min. Different concentrations of α-amylase solution were added. The change in absorbance value of the system was determined. Plot the rate of enzymatic reaction versus α-amylase concentration.
To the reaction system, 1 mL of soluble starch solution of different concentrations (0, 5, 10, 15, 20, 25 mg/mL) was added. The effects of different concentrations of SBPH, SBTH and SBNPH on α-amylase activity were determined at 37 °C in a water bath. Finally, the inverse of the concentration of soluble starch solution was used as the horizontal coordinate and plotted with Lineweaver-Burk plots to determine the type of inhibition of α-amylase by SBPH, SBTH and SBNP. The general equation for reversible inhibition is given below: v=vmaxS/Km1+i/Kic+1+i/Kiu 1/v=Km+s/vmaxs+iKm/Kic+s/Kiu/vmaxs 1/v=Km/vmax1+i/Kic+s/vmax1+i/Kiu where Km is the Michaelis-menten constand (mg/mL), v denotes the initial reaction rate (U, mm/min), S denotes the substrate concentration (mg/mL), i denotes the content of the inhibitor concentration (U, mg/mL), Kic denotes the inhibitory constant of the competitive inhibitor, and Kiu denotes the inhibitory constant of the non-competitive inhibitor.

3 T3-L1 preadipocytes [11] = test: Total cellular cholesterol content; type: cell-based; conditions: 1000 μg/mL
Protocol: as §1
Total cellular cholesterol content was measured using a kit (JianCheng, Nanjing, China). The […] enzymatic method was used according to the manufacturer's instructions. Protein concentration was measured using the BCA protein assay kit (Solarbio, Beijing, China).

[12] = ref Xu et al., 2020, 2019, 2022; cited from earlier work; remark: listed apart in the source
[13] = Lineweaver-Burk double inverse plots, soluble starch 0-25 mg/mL

## CCCCCCCCCCC[C@@H](C[C@@H]1OC(=O)[C@H]1CCCCCC)OC(=O)[C@H](CC(C)C)NC=O [orlistat]
3 T3-L1 preadipocytes [1]
  cytotoxicity: no cytotoxicity

## IEELEEELEAER [PIE, Ile-Glu-Glu-Leu-Glu-Glu-Glu-Glu-Leu-Glu-Ala-Glu-Arg, peptide … from SBTH, purity 94.74%, synthesized at ChinaPeptides]
α-amylase [2]
  change of α-amylase secondary structure with increasing concentration: a decrease in α-helix content and an increase in β-fold structures
[3]
  calcium-binding capability: pronounced calcium-binding capability
3 T3-L1 preadipocytes [4]
  TG content reduced to: 52.11%
α-amylase [5]
  α-amylase inhibition rate: 58.81%
[6]
  calcium-binding capacity / affinity: greatest affinity for calcium
α-amylase [7]
  hydrodynamic radius of α-amylase: increased gradually
[8]; n = 8
  body weight change: no significant weight change
[8]; n = 8, basal diet, control group 33.65%
  weight gain over three months: 6.61%
α-amylase [9]
  α-amylase inhibition rate with simulated digestion time: the inhibition rate decreased significantly with the increasing duration of gastrointestinal digestion
α-amylase [10]; [13]
  KI: 3290 µg/mL
  KIS: 3.97 mg/mL
α-amylase [10]; enzyme reaction rate against α-amylase concentration
  reversibility of α-amylase inhibition: reversible
3 T3-L1 preadipocytes [11]
  TC content decreased to: 54.35%
[12]
  activity and stability in the gastrointestinal tract: robust activity and stability within the gastrointestinal tract
